# Tested on: recombinant NL4-3 virus (Renilla luciferase in nef, Gag P373S)
# Test: HIV cell culture assay (luciferase reporter virus in MT-2 cells)
# Format: cell-based
# Conditions: NL43
# Method: HIV cell culture assay—MT-2 cells and 293T cells were obtained from the NIH AIDS Research and Reference Reagent Program. MT-2 cells were propagated in RPMI 1640 media supplemented with 10% heat inactivated fetal bovine serum, […]. The 293T cells were propagated in DMEM media supplemented with 10% heat inactivated fetal bovine serum (FBS), 100 units/ml penicillin G and 100 μg/ml streptomycin. The proviral DNA clone of NL4-3 was obtained from the NIH AIDS Research and Reference Reagent Program. A recombinant NL4-3 virus, in which a section of the nef gene from NL4-3 was replaced with the Renilla luciferase gene, was used as a reference virus. In addition, residue Gag P373 was converted to P373S. Briefly, the recombinant virus was prepared by transfection of the altered proviral clone of NL4-3. Transfections were performed in 293T cells using LipofectAMINE PLUS from Invitrogen (Carlsbad, Calif.), according to manufacturer's instruction. The virus was titered in MT-2 cells using luciferase enzyme activity as a marker. Luciferase was quantitated using the Dual Luciferase kit from Promega (Madison, Wis.), with modifications to the manufacturer's protocol. The diluted Passive Lysis solution was pre-mixed with the re-suspended Luciferase Assay Reagent and the re-suspended Stop & Glo Substrate (2:1:1 ratio). Fifty (50) μL of the mixture was added to each aspirated well on assay plates and luciferase activity was measured immediately on a Wallac TriLux (Perkin-Elmer). Antiviral activities of inhibitors toward the recombinant virus were quantified by measuring luciferase activity in cells infected for 4-5 days with NLRluc recombinants in the presence serial dilutions of the inhibitor. Table 1 is the key for the data in Table 2.
row,Compound,EC50 [µM]
1,"C=C(C)[C@@H]1CC[C@]2(CO)CC[C@]3(C)[C@H](CC[C@@H]4[C@@]5(C)CC=C(c6ccc(C(=O)O)cc6Cl)C(C)(C)[C@@H]5CC[C@]43C)[C@@H]12 [Example 5n, 3-chloro-4-((1R,3aS,5aR,5bR,7aR,11aS,11bR,13aR,13bR)-3a-(hydroxymethyl)-5a,5b,8,8,11a-pentamethyl-1-(prop-1-en-2-yl)-2,3,3a,4,5,5a,5b,6,7,7a,8,11,11a,11b,12,13,13a,13b-octadecahydro-1H-cyclopenta[a]chrysen-9-yl)benzoic acid]",< 1
2,"C=C(C)[C@@H]1CC[C@]2(CO)CC[C@]3(C)[C@H](CC[C@@H]4[C@@]5(C)CC=C(c6cnc(C(=O)O)nc6)C(C)(C)[C@@H]5CC[C@]43C)[C@@H]12 [Example 5q, 5-((1R,3aS,5aR,5bR,7aR,11aS,11bR,13aR,13bR)-3a-(hydroxymethyl)-5a,5b,8,8,11a-pentamethyl-1-(prop-1-en-2-yl)-2,3,3a,4,5,5a,5b,6,7,7a,8,11,11a,11b,12,13,13a,13b-octadecahydro-1H-cyclopenta[a]chrysen-9-yl)pyrimidine-2-carboxylic acid]",> 1
3,"C=C(C)[C@@H]1CC[C@]2(C(=O)O)CC[C@]3(C)[C@H](CC[C@@H]4[C@@]5(C)CC=C(c6ccc(C7(C(=O)O)CC7)cc6)C(C)(C)[C@@H]5CC[C@]43C)[C@@H]12 [Example 4c, (1R,3aS,5aR,5bR,7aR,11aS,11bR,13aR,13bR)-9-(4-(1-carboxycyclopropyl)phenyl)-5a,5b,8,8,11a-pentamethyl-1-(prop-1-en-2-yl)-2,3,3a,4,5,5a,5b,6,7,7a,8,11,11a,11b,12,13,13a,13b-octadecahydro-1H-cyclopenta[a]chrysene-3a-carboxylic acid]",< 1
4,"C=C(C)[C@@H]1CC[C@]2(C(=O)O)CC[C@]3(C)[C@H](CC[C@@H]4[C@@]5(C)CC=C(c6ccc(C(=O)O)cc6)C(C)(C)[C@@H]5CC[C@]43C)[C@@H]12 [Example 2b, (1R,3aS,5aR,5bR,7aR,11aS,13aR,13bR)-9-(4-carboxyphenyl)-5a,5b,8,8,11a-pentamethyl-1-(prop-1-en-2-yl)-2,3,3a,4,5,5a,5b,6,7,7a,8,11,11a,11b,12,13,13a,13b-octadecahydro-1H-cyclopenta[a]chrysene-3a-carboxylic acid]",< 1
5,"C=C(C)[C@@H]1CC[C@]2(CO)CC[C@]3(C)[C@H](CC[C@@H]4[C@@]5(C)CC=C(c6ccc(C(=O)O)cc6C)C(C)(C)[C@@H]5CC[C@]43C)[C@@H]12 [Example 5r, 4-((1R,3aS,5aR,5bR,7aR,11aS,11bR,13aR,13bR)-3a-(hydroxymethyl)-5a,5b,8,8,11a-pentamethyl-1-(prop-1-en-2-yl)-2,3,3a,4,5,5a,5b,6,7,7a,8,11,11a,11b,12,13,13a,13b-octadecahydro-1H-cyclopenta[a]chrysen-9-yl)-3-methylbenzoic acid]",< 1
6,"C=C(C)[C@@H]1CC[C@]2(C(=O)O)CC[C@]3(C)[C@H](CC[C@@H]4[C@@]5(C)CC=C(c6ccc(C(=O)O)c(Cl)c6)C(C)(C)[C@@H]5CC[C@]43C)[C@@H]12 [Example 4o, (1R,3aS,5aR,5bR,7aR,11aS,11bR,13aR,13bR)-9-(4-carboxy-3-chlorophenyl)-5a,5b,8,8,11a-pentamethyl-1-(prop-1-en-2-yl)-2,3,3a,4,5,5a,5b,6,7,7a,8,11,11a,11b,12,13,13a,13b-octadecahydro-1H-cyclopenta[a]chrysene-3a-carboxylic acid]",< 1
7,"C=C(C)[C@@H]1CC[C@]2(CO)CC[C@]3(C)[C@H](CC[C@@H]4[C@@]5(C)CC=C(c6ccc(C(=O)O)c(OC)c6)C(C)(C)[C@@H]5CC[C@]43C)[C@@H]12 [Example 5o, 4-((1R,3aS,5aR,5bR,7aR,11aS,11bR,13aR,13bR)-3a-(hydroxymethyl)-5a,5b,8,8,11a-pentamethyl-1-(prop-1-en-2-yl)-2,3,3a,4,5,5a,5b,6,7,7a,8,11,11a,11b,12,13,13a,13b-octadecahydro-1H-cyclopenta[a]chrysen-9-yl)-2-methoxybenzoic acid]",0.5
8,"C=C(C)[C@@H]1CC[C@]2(C(=O)O)CC[C@]3(C)[C@H](CC[C@@H]4[C@@]5(C)CC=C(c6ccc(S(C)(=O)=O)cc6)C(C)(C)[C@@H]5CC[C@]43C)[C@@H]12 [Example 4j, (1R,3aS,5aR,5bR,7aR,11aS,11bR,13aR,13bR)-5a,5b,8,8,11a-pentamethyl-9-(4-(methylsulfonyl)phenyl)-1-(prop-1-en-2-yl)-2,3,3a,4,5,5a,5b,6,7,7a,8,11,11a,11b,12,13,13a,13b-octadecahydro-1H-cyclopenta[a]chrysene-3a-carboxylic acid]",> 1
9,"C=C(C)[C@@H]1CC[C@]2(CO)CC[C@]3(C)[C@H](CC[C@@H]4[C@@]5(C)CC=C(c6ccc(C(=O)O)c(C(F)(F)F)c6)C(C)(C)[C@@H]5CC[C@]43C)[C@@H]12 [Example 5s, 4-((1R,3aS,5aR,5bR,7aR,11aS,11bR,13aR,13bR)-3a-(hydroxymethyl)-5a,5b,8,8,11a-pentamethyl-1-(prop-1-en-2-yl)-2,3,3a,4,5,5a,5b,6,7,7a,8,11,11a,11b,12,13,13a,13b-octadecahydro-1H-cyclopenta[a]chrysen-9-yl)-2-(trifluoromethyl)benzoic acid]",< 1
10,"C=C(C)[C@@H]1CC[C@]2(C(=O)OC)CC[C@]3(C)[C@H](CC[C@@H]4[C@@]5(C)CC=C(c6ccc(C(=O)O)cc6)C(C)(C)[C@@H]5CC[C@]43C)[C@@H]12 [Example 1b, 4-((1R,3aS,5aR,5bR,7aR,11aS,13aR,13bR)-3a-(methoxycarbonyl)-5a,5b,8,8,11a-pentamethyl-1-(prop-1-en-2-yl)-2,3,3a,4,5,5a,5b,6,7,7a,8,11,11a,11b,12,13,13a,13b-octadecahydro-1H-cyclopenta[a]chrysen-9-yl)benzoic acid]",< 1
11,"C=C(C)[C@@H]1CC[C@]2(C(=O)O)CC[C@]3(C)[C@H](CC[C@@H]4[C@@]5(C)CC=C(c6ccc(NC(=O)CCC(=O)O)cc6)C(C)(C)[C@@H]5CC[C@]43C)[C@@H]12 [Example 4b, (1R,3aS,5aR,5bR,7aR,11aS,11bR,13aR,13bR)-9-(4-(3-carboxypropanamido)phenyl)-5a,5b,8,8,11a-pentamethyl-1-(prop-1-en-2-yl)-2,3,3a,4,5,5a,5b,6,7,7a,8,11,11a,11b,12,13,13a,13b-octadecahydro-1H-cyclopenta[a]chrysene-3a-carboxylic acid]",> 1
12,"C=C(C)[C@@H]1CC[C@]2(CO)CC[C@]3(C)[C@H](CC[C@@H]4[C@@]5(C)CC=C(c6ccc(C(=O)O)s6)C(C)(C)[C@@H]5CC[C@]43C)[C@@H]12 [Example 5c, 5-((1R,3aS,5aR,5bR,7aR,11aS,11bR,13bR)-3a-(hydroxymethyl)-5a,5b,8,8,11a-pentamethyl-1-(prop-1-en-2-yl)-2,3,3a,4,5,5a,5b,6,7,7a,8,11,11a,11b,12,13,13a,13b-octadecahydro-1H-cyclopenta[a]chrysen-9-yl)thiophene-2-carboxylic acid]",0.23

# From patent US8754068B2, “Modified C-3 betulinic acid derivatives as HIV maturation inhibitors” (priority 2010, dated 2014)
